This assay deals with ERα (Homo sapiens (Human), UniProt P03372). Briefly: ERα degradation (MCF7 cells), in-cell Western. Type of assay: cell-based. Particulars: MCF7 cells; for % ERα remaining: remaining ERα protein at 10 μM ligand, relative to DMSO control. The protocol:
ERα Degradation (MCF7 Cells)
The column titled MCF7 IC50 reports the inflection point of the inhibition of transcription in MCF7 cells as described above. Percentage ERα remaining reports the remaining ERα protein measured at 10 μM concentration of the ligand as described above. The column ERα IC50 reports the inflection point of the degradation in response to the ligand concentration.

Setting [1] is: inflection point of the degradation in response to ligand concentration.

Chain of ERα (P03372 whole entry): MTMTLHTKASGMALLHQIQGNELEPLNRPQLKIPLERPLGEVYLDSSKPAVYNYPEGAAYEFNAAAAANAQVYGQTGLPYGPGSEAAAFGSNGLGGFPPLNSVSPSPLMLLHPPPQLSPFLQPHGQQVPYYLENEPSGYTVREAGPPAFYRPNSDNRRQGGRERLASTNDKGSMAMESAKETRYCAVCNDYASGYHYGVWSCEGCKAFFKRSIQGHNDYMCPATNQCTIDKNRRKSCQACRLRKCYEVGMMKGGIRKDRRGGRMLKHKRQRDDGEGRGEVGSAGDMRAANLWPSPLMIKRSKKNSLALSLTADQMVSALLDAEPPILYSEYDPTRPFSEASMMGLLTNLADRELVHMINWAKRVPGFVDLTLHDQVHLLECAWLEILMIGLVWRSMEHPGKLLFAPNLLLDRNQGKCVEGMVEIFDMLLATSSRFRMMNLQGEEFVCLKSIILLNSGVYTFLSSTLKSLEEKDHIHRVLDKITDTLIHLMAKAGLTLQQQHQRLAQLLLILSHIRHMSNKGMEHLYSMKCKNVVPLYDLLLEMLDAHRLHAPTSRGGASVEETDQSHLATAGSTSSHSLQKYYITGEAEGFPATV

On to `Cc1c(O)cccc1-c1sc2cc(O)ccc2c1Oc1ccc(/C=C/C(=O)O)cc1` [Example 16, (E)-3-(4-((6-hydroxy-2-(3-hydroxy-2-methyl-phenyl)benzo[b]thiophen-3-yl)oxy)phenyl)-acrylic acid], for which the “% ERα remaining” value amounted to 26%. Moreover, the IC50 under setting [1] came out at 0.006 µM.

For the compound `CCc1ccccc1-c1sc2cc(O)ccc2c1Oc1ccc(/C=C/C(=O)O)cc1` [Example 18, (E)-3-(4-((2-(2-ethylphenyl)-6-hydroxybenzo[b]thiophen-3-yl)oxy)phenyl)-acrylic acid], the “% ERα remaining” value is 23%. The IC50 under setting [1] worked out at 0.001 µM.

Turning to `CC(=O)c1ccccc1-c1sc2cc(O)ccc2c1Oc1ccc(/C=C/C(=O)O)cc1` [Example 19, (E)-3-(4-((2-(2-acetylphenyl)-6-hydroxybenzo[b]thiophen-3-yl)oxy)phenyl)-acrylic acid], the “% ERα remaining” value amounted to 19%. Further, the IC50 under setting [1] amounted to 0.007 µM.

With `CC(C)(C)c1ccccc1-c1sc2cc(O)ccc2c1Oc1ccc(/C=C/C(=O)O)cc1` [Example 20, (E)-3-(4-((2-(2-(tert-butyl)phenyl)-6-hydroxybenzo[b]thiophen-3-yl)oxy)phenyl)-acrylic acid], the “% ERα remaining” value is listed as 22%. The same compound came in with a concentration for half-maximal inhibition (IC50) under setting [1] of 0.001 µM.

For `O=C(O)/C=C/c1ccc(Oc2c(-c3ccccc3[N+](=O)[O-])sc3cc(O)ccc23)cc1` [Example 21, (E)-3-(4-((6-hydroxy-2-(2-nitrophenyl)-benzo[b]thiophen-3-yl)oxy)phenyl)-acrylic acid], the “% ERα remaining” value was 22%. Moreover, under setting [1], half-maximal inhibition (IC50) required 0.015 µM.

Take `CC(C)(C)c1ccc(-c2sc3cc(O)ccc3c2Oc2ccc(/C=C/C(=O)O)cc2)cc1` [Example 22, (E)-3-(4-((2-(4-(tert-butyl)phenyl)-6-hydroxybenzo[b]thiophen-3-yl)oxy)phenyl)-acrylic acid]: the “% ERα remaining” value is given as 18%. Further, the IC50 under setting [1] is 0.032 µM.

For the compound `Cc1cc(C)cc(-c2sc3cc(O)ccc3c2Oc2ccc(/C=C/C(=O)O)cc2)c1` [Example 23, (E)-3-(4-((2-(3,5-dimethylphenyl)-6-hydroxybenzo[b]thiophen-3-yl)oxy)phenyl)-acrylic acid], the “% ERα remaining” value was 22%. Besides, under setting [1], the midpoint of inhibition, the IC50, lay at 0.03 µM.

As to `C[C@H](O)c1ccccc1-c1sc2cc(O)ccc2c1Oc1ccc(/C=C/C(=O)O)cc1` [Example 25, (S,E)-3-(4-((6-hydroxy-2-(2-(1-hydroxyethyl)phenyl)benzo[b]thiophen-3-yl)oxy)phenyl)acrylic acid], the “% ERα remaining” value was found to be 22%. The compound further had a 50% inhibitory concentration (IC50) under setting [1] of 0.006 µM.

`COc1ccc(-c2sc3cc(O)ccc3c2Oc2ccc(/C=C/C(=O)O)cc2)cc1` [Example 26, (E)-3-(4-((6-hydroxy-2-(4-methoxyphenyl)benzo[b]thiophen-3-yl)oxy)phenyl)acrylic acid]: the “% ERα remaining” value was found to be 18%. Further, under setting [1], the half-maximal inhibitory concentration (IC50) is 0.021 µM.

For the compound `O=C(O)/C=C/c1ccc(Oc2c(-c3ccc(C(F)F)cc3)sc3cc(O)ccc23)cc1` [Example 27, (E)-3-(4-((2-(4-(difluoromethyl)phenyl)-6-hydroxybenzo[b]thiophen-3-yl)oxy)phenyl)acrylic acid], the “% ERα remaining” value stood at 21%. Under setting [1], it took 0.085 µM to reach half-maximal inhibition (IC50).

Consider `C/C(=C\c1ccc(Oc2c(-c3ccc(O)cc3)sc3cc(O)ccc23)cc1)C(=O)O` [Example 28, (E)-3-(4-((6-hydroxy-2-(4-hydroxyphenyl)-benzo[b]thiophen-3-yl)oxy)phenyl)-2-methylacrylic acid], for which the “% ERα remaining” value was 33%.

On to `O=C(O)/C=C/c1ccc(Oc2c(-c3ccc(O)cc3)sc3cc(O)ccc23)cn1` [Example 29, (E)-3-(5-((6-hydroxy-2-(4-hydroxyphenyl)benzo[b]thiophen-3-yl)oxy)pyridin-2-yl)acrylic acid], for which the “% ERα remaining” value came to 26%.

As for `CN(c1ccc(/C=C/C(=O)O)cc1)c1c(-c2ccc(O)cc2)sc2cc(O)ccc12` [Example 30, (E)-3-(4-((6-hydroxy-2-(4-hydroxyphenyl)benzo[b]thiophen-3-yl)(methyl)amino)phenyl)acrylic acid], the “% ERα remaining” value worked out at 30%.

In the case of `O=C(/C=C/c1ccc(Oc2c(-c3ccc(O)cc3)sc3cc(O)ccc23)cc1)NCCC(F)(F)F` [Example 31, (E)-3-(4-((6-hydroxy-2-(4-hydroxyphenyl)benzo[b]thiophen-3-yl)oxy)phenyl)-N-(3,3,3-trifluoropropyl)acrylamide], the “% ERα remaining” value was found to be 45%. For the same compound, half-maximal inhibition under setting [1] (IC50) was put at 0.001 µM.

As to `Cc1cc(F)ccc1-c1sc2cc(O)ccc2c1Oc1ccc(/C=C/C(=O)NO)cc1` [Example 32, (E)-3-(4-((2-(4-fluoro-2-methylphenyl)-6-hydroxybenzo [b]thiophen-3-yl)oxy)phenyl)-N-hydroxyacrylamide], the “% ERα remaining” value was determined as 25%. In addition, the DC50 (inflection point of the degradation in response to ligand concentration, read-out: ERα IC50) was found to be 0.017 µM.

On to `O=C(/C=C/c1ccc(Oc2c(-c3ccc(F)cc3)sc3cc(O)ccc23)cc1)NCCC(F)(F)F` [Example 33, (E)-3-(4-((2-(4-fluorophenyl)-6-hydroxybenzo[b]thiophen-3-yl)oxy)phenyl)-N-(3,3,3-trifluoropropyl)-acrylamide], for which the “% ERα remaining” value stood at 32%. In addition, the half-maximal inhibitory concentration (IC50) under setting [1] stood at 0.01 µM.

In the case of `CCOC(=O)/C=C/c1ccc(Oc2c(-c3ccc(O)cc3)sc3cc(O)ccc23)cc1C` [Example 34, (E)-ethyl 3-(4-((6-hydroxy-2-(4-hydroxyphenyl)benzo[b]thiophen-3-yl)oxy)-2-methylphenyl)acrylate], the “% ERα remaining” value came to 42%. This compound came in with a half-inhibitory concentration (IC50) under setting [1] of 0.112 µM.

Take `CCOC(=O)/C=C/c1ccc(Oc2c(-c3ccc(O)cc3)sc3cc(O)ccc23)c(C)c1` [Example 35, (E)-ethyl 3-(4-((6-hydroxy-2-(4-hydroxyphenyl)benzo[b]thiophen-3-yl)oxy)-3-methylphenyl)acrylate]: the “% ERα remaining” value worked out at 33%.

Turning to `COC(=O)/C=C/c1ccc(Oc2c(-c3ccc(F)cc3)sc3cc(O)ccc23)cc1` [Example 36, (E)-methyl 3-(4-((2-(4-fluorophenyl)-6-hydroxybenzo[b]thiophen-3-yl)oxy)phenyl)-acrylate], the “% ERα remaining” value came to 28%.

As to `COC(=O)/C=C/c1ccc(Oc2c(-c3ccc(O)cc3)sc3c(F)c(O)c(F)cc23)cc1` [Example 37, (E)-methyl 3-(4-((5,7-difluoro-6-hydroxy-2-(4-hydroxyphenyl)-benzo[b]thiophen-3-yl)oxy)phenyl)acrylate], the “% ERα remaining” value amounted to 38%.

As to `O=C(O)/C=C/c1ccc(Oc2c(-c3ccc(O)cc3)sc3c(F)c(O)c(F)cc23)cc1` [Example 38, (E)-3-(4-((5,7-difluoro-6-hydroxy-2-(4-hydroxyphenyl)benzo[b]thiophen-3-yl)oxy)phenyl)acrylic acid], the “% ERα remaining” value was determined as 25%. Moreover, it took 0.022 µM to reach half-maximal inhibition under setting [1] (IC50).

On to `O=C(O)/C=C/c1ccc(Oc2c(-c3ccc(O)cc3)sc3c(F)c(O)ccc23)cc1` [Example 39, (E)-3-(4-((7-fluoro-6-hydroxy-2-(4-hydroxyphenyl)benzo[b]thiophen-3-yl)oxy)phenyl)acrylic acid], for which the “% ERα remaining” value stood at 24%. This compound yielded a half-inhibitory concentration (IC50) under setting [1] of 0.07 µM.

As for `O=C(O)/C=C/c1ccc(Oc2c(-c3ccc(O)c(F)c3)sc3cc(O)ccc23)cc1` [Example 40, (E)-3-(4-((2-(3-fluoro-4-hydroxyphenyl)-6-hydroxybenzo[b]thiophen-3-yl)oxy)phenyl)acrylic acid], the “% ERα remaining” value was determined as 23%. Besides, the 50% inhibitory concentration (IC50) under setting [1] stood at 0.022 µM.

As for `Cc1nnc(/C=C/c2ccc(Oc3c(-c4ccc(F)cc4C)sc4cc(O)ccc34)cc2)o1` [Example 46, (E)-2-(4-fluoro-2-methylphenyl)-3-(4-(2-(5-methyl-1,3,4-oxadiazol-2-yl)vinyl)phenoxy)benzo[b]thiophen-6-ol], the “% ERα remaining” value came to 41%. The same compound yielded an IC50 under setting [1] of 0.005 µM.

With `Cc1cc(F)ccc1-c1sc2cc(O)ccc2c1Oc1ccc(/C=C/c2n[nH]c(=O)o2)cc1` [Example 48, (E)-5-(4-((2-(4-fluoro-2-methylphenyl)-6-hydroxybenzo [b]thiophen-3-yl)oxy)styryl)-1,3,4-oxadiazol-2(3H)-one], the “% ERα remaining” value turned out to be 44%.

`Cc1nnc(/C=C/c2ccc(Oc3c(-c4ccc(F)cc4C)sc4cc(O)ccc34)cc2)[nH]1` [Example 49, (E)-2-(4-fluoro-2-methylphenyl)-3-(4-(2-(5-methyl-4H-1,2,4-triazol-3-yl)vinyl)phenoxy)benzo[b]thiophen-6-ol]: the “% ERα remaining” value turned out to be 28%.

Consider `O=c1nc(/C=C/c2ccc(Oc3c(-c4ccc(O)cc4)sc4cc(O)ccc34)cc2)cc(C(F)(F)F)[nH]1` [Example 50, (E)-4-(4-((6-hydroxy-2-(4-hydroxyphenyl)-benzo[b]thiophen-3-yl)oxy)styryl)-6-(trifluoromethyl) pyrimidin-2(1H)-one], for which the “% ERα remaining” value was determined as 36%. Further, the half-inhibitory concentration (IC50) under setting [1] was determined as 0.022 µM.

For the compound `Cc1cc(F)ccc1-c1sc2cc(O)ccc2c1Oc1ccc(/C=C/c2nnnn2C)cc1` [Example 51, (E)-2-(4-fluoro-2-methylphenyl)-3-(4-(2-(1-methyl-1H-tetrazol-5-yl)vinyl)phenoxy)-benzo[b]thiophen-6-ol], the “% ERα remaining” value is given as 41%. The compound further had an IC50 under setting [1] of 0.011 µM.

Turning to `Cn1nnnc1/C=C/c1ccc(Oc2c(-c3ccc(F)cc3)sc3cc(O)ccc23)cc1` [Example 52, (E)-2-(4-fluorophenyl)-3-(4-(2-(1-methyl-1H-tetrazol-5-yl)vinyl)phenoxy)benzo [b]thiophen-6-ol], the “% ERα remaining” value amounted to 41%. This compound came in with an IC50 under setting [1] of 0.223 µM.

In the case of `CCCn1nnnc1/C=C/c1ccc(Oc2c(-c3ccc(F)cc3C)sc3cc(O)ccc23)cc1` [Example 53, (E)-2-(4-fluoro-2-methylphenyl)-3-(4-(2-(1-propyl-1H-tetrazol-5-yl)vinyl)phenoxy) benzo[b]thiophen-6-ol], the “% ERα remaining” value was 43%.
